From patent US20050112573A1, “Method of detecting toxic substance” (priority 2001, published 2005)

System: yeast genes (level of expressed mRNA)
Experiment: DNA chip analysis of expressed mRNA of yeast genes after 2 h culture with a toxic chemical substance
Type: cell-based, Saccharomyces cerevisiae S288C
Conditions: for The level of expressed mRNA in the presence of chemical substance/ (ratio to absence): transport facilitation protein gene; for The level of expressed mRNA in the presence of chemical substance/: ratio to no chemical; for The level of expressed mRNA in the presence of chemical substance/ (ratio to absence of chemical substance): stress protein genes, DNA chip
Method in brief: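 Values are treated-to-control fluorescence ratios from a whole-yeast-genome DNA chip (65° C, over 12 h hybridization) using Cy3/Cy5-labelled cDNA from mRNA. Log-phase S288C cells in YPD at 25° C were exposed 2 h to a toxicant at sublethal, growth-inhibiting concentration.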

sodium dodecylbenzosulfonate [(17)]
level of expressed mRNA in the presence of chemical substance/in its absence (gene YNL037C): 0.9
level of expressed mRNA in the presence of chemical substance/in its absence (gene YNL045W): 1.1
The level of expressed mRNA in the presence of chemical substance/absence: YNL058C (gene YNL058C): 0.8
The level of expressed mRNA in the presence of chemical substance/absence: YNL063W (gene YNL063W): 0.9
level of expressed mRNA in the presence of chemical substance/in its absence (gene YNL104C): 0.9
level of expressed mRNA in the presence of chemical substance/in its absence (gene YNL106C): 1.1
level of expressed mRNA in the presence of chemical substance/in its absence (gene YNL130C): 0.7
level of expressed mRNA in the presence of chemical substance/in its absence (gene YNL169C): 1.1
The level of expressed mRNA in the presence of chemical substance/absence: YNL176C (gene YNL176C): 0.6
The level of expressed mRNA in the presence of chemical substance/absence: YNL181W (gene YNL181W): 0.8
The level of expressed mRNA in the presence of chemical substance/absence: YNL191W (gene YNL191W): 0.5
The level of expressed mRNA in the presence of chemical substance/absence: YNL194C (gene YNL194C): 0.8
The level of expressed mRNA in the presence of chemical substance/absence: YNL200C (gene YNL200C): 1.2
The level of expressed mRNA in the presence of chemical substance/absence: YNL212W (gene YNL212W): 0.9
level of expressed mRNA in the presence of chemical substance/in its absence (gene YNL231C): 3.1
The level of expressed mRNA in the presence of chemical substance/absence: YNL253W (gene YNL253W): 1.1
The level of expressed mRNA in the presence of chemical substance/absence: YNL265C (gene YNL265C): 0.9
The level of expressed mRNA in the presence of chemical substance/absence: YNL276C (gene YNL276C): 1.1
level of expressed mRNA in the presence of chemical substance/in its absence (gene YNL322C): 0.9
level of expressed mRNA in the presence of chemical substance/in its absence (gene YNR002C): 1.5
level of expressed mRNA in the presence of chemical substance/in its absence (gene YNR019W): 2.4
level of expressed mRNA in the presence of chemical substance/in its absence (gene YNR033W): 0.9
The level of expressed mRNA in the presence of chemical substance/absence: YNR051C (gene YNR051C): 0.7
level of expressed mRNA in the presence of chemical substance/in its absence (gene YNR059W): 2.6
The level of expressed mRNA in the presence of chemical substance/absence: YOL026C (gene YOL026C): 2.1
The level of expressed mRNA in the presence of chemical substance/absence: YOL030W (gene YOL030W): 0.9
level of expressed mRNA in the presence of chemical substance/in its absence (gene YOL058W): 1.2
level of expressed mRNA in the presence of chemical substance/in its absence (gene YOL126C): 1.6
level of expressed mRNA in the presence of chemical substance/in its absence (gene YOL143C): 1.8
level of expressed mRNA in the presence of chemical substance/in its absence (gene YOL153C): 1.1
level of expressed mRNA in the presence of chemical substance/in its absence (gene YOL157C): 1.4
The level of expressed mRNA in the presence of chemical substance/absence: YOR022C (gene YOR022C): 1.1
The level of expressed mRNA in the presence of chemical substance/absence: YOR087W (gene YOR087W): 0.8
The level of expressed mRNA in the presence of chemical substance/absence: YOR088W (gene YOR088W): 0.7
level of expressed mRNA in the presence of chemical substance/in its absence (gene YOR099W): 1.2
level of expressed mRNA in the presence of chemical substance/in its absence (gene YOR130C): 1.5
level of expressed mRNA in the presence of chemical substance/in its absence (gene YOR136W): 0.8
The level of expressed mRNA in the presence of chemical substance/absence: YOR138C (gene YOR138C): 1.1
The level of expressed mRNA in the presence of chemical substance/absence: YOR155C (gene YOR155C): 0.8
The level of expressed mRNA in the presence of chemical substance/absence: YOR253W (gene YOR253W): 0.9
The level of expressed mRNA in the presence of chemical substance/absence: YOR267C (gene YOR267C): 1.3
The level of expressed mRNA in the presence of chemical substance/absence: YOR325W (gene YOR325W): 0.8
level of expressed mRNA in the presence of chemical substance/in its absence (gene YOR336W): 1.0
level of expressed mRNA in the presence of chemical substance/in its absence (gene YOR344C): 1.3
level of expressed mRNA in the presence of chemical substance/in its absence (gene YOR347C): 1.7
The level of expressed mRNA in the presence of chemical substance/absence: YPL005W (gene YPL005W): 1.2
level of expressed mRNA in the presence of chemical substance/in its absence (gene YPL017C): 1.3
The level of expressed mRNA in the presence of chemical substance / the level in the absence of chemical substance, yeast gene YPL107W (gene YPL107W, DNA chip fluorescence ratio to control without chemical, 2 hours culture with chemical, growth-inhibiting non-lethal concentration): 1.0
The level of expressed mRNA in the presence of chemical substance / the level in the absence of chemical substance, yeast gene YPL138C (gene YPL138C, DNA chip fluorescence ratio to control without chemical, 2 hours culture with chemical, growth-inhibiting non-lethal concentration): 0.8
The level of expressed mRNA in the presence of chemical substance/absence: YPL150W (gene YPL150W): 1.4
The level of expressed mRNA in the presence of chemical substance/absence: YPL151C (gene YPL151C): 0.8
The level of expressed mRNA in the presence of chemical substance/absence: YPL152W (gene YPL152W): 1.2
The level of expressed mRNA in the presence of chemical substance/absence: YPL168W (gene YPL168W): 1.1
The level of expressed mRNA in the presence of chemical substance/absence: YPL180W (gene YPL180W): 1.0
The level of expressed mRNA in the presence of chemical substance/absence: YPL188W (gene YPL188W): 0.7
The level of expressed mRNA in the presence of chemical substance/absence: YPL221W (gene YPL221W): 1.5
The level of expressed mRNA in the presence of chemical substance/absence: YPL225W (gene YPL225W): 1.0
The level of expressed mRNA in the presence of chemical substance/absence: YPL249C (gene YPL249C): 0.8
The level of expressed mRNA in the presence of chemical substance/absence: YPL260W (gene YPL260W): 0.8
level of expressed mRNA in the presence of chemical substance/in its absence (gene YPL265W): 0.5
level of expressed mRNA in the presence of chemical substance/in its absence (gene YPR006C): 1.8
level of expressed mRNA in the presence of chemical substance/in its absence (gene YPR026W): 0.9
The level of expressed mRNA in the presence of chemical substance/absence: YPR049C (gene YPR049C): 1.0
The level of expressed mRNA in the presence of chemical substance/absence: YPR061C (gene YPR061C): 1.1
The level of expressed mRNA in the presence of chemical substance/absence: YPR093C (gene YPR093C): 1.4
The level of expressed mRNA in the presence of chemical substance/absence: YPR146C (gene YPR146C): 1.0
The level of expressed mRNA in the presence of chemical substance/absence: YPR148C (gene YPR148C): 0.9
The level of expressed mRNA in the presence of chemical substance/absence: YPR150W (gene YPR150W): 0.9
The level of expressed mRNA in the presence of chemical substance/absence: YPR158W (gene YPR158W): 0.9
The level of expressed mRNA in the presence of chemical substance/absence: YPR169W (gene YPR169W): 1.1
The level of expressed mRNA in the presence of chemical substance/absence: YPR172W (gene YPR172W): 1.1
The level of expressed mRNA in the presence of chemical substance/absence: YPR174C (gene YPR174C): 1.4
The level of expressed mRNA in the presence of chemical substance/in the absence of chemical substance (yeast gene YAL023C): 1.0
The level of expressed mRNA in the presence of chemical substance/in the absence of chemical substance (yeast gene YAL060W): 1.1
The level of expressed mRNA in the presence of chemical substance/in the absence of chemical substance (yeast gene YAL062W): 1.0
The level of expressed mRNA in the presence of chemical substance/ (ratio to absence) (yeast gene YAL067C): 1.0
The level of expressed mRNA in the presence of chemical substance/The level of expressed mRNA in the absence of chemical substance (yeast gene YAR010C): 1.5
The level of expressed mRNA in the presence of chemical substance/The level of expressed mRNA in the absence of chemical substance (yeast gene YBL005W-A): 1.3
The level of expressed mRNA in the presence of chemical substance/ (ratio to absence) (yeast gene YBL030C): 1.0
The level of expressed mRNA in the presence of chemical substance/ (ratio to absence), gene YBL038W (yeast gene YBL038W, mitochondria-located protein genes, 2 h culture with chemical): 1.2
The level of expressed mRNA in the presence of chemical substance/The level of expressed mRNA in the absence of chemical substance (yeast gene YBL041W): 1.3
The level of expressed mRNA in the presence of chemical substance/The level of expressed mRNA in the absence of chemical substance (yeast gene YBL043W): 2.3
The level of expressed mRNA in the presence of chemical substance/ (yeast gene YBL065W): 1.1
The level of expressed mRNA in the presence of chemical substance/The level of expressed mRNA in the absence of chemical substance (yeast gene YBL078C): 1.8
The level of expressed mRNA in the presence of chemical substance/ (ratio to absence of chemical substance) (yeast gene YBL093C): 1.4
The level of expressed mRNA in the presence of chemical substance/ (ratio to absence) (yeast gene YBL099W): 0.7
The level of expressed mRNA in the presence of chemical substance/in the absence of chemical substance (yeast gene YBR006W): 1.2
The level of expressed mRNA in the presence of chemical substance/ (in its absence), gene YBR036C (yeast gene YBR036C, ratio of DNA chip fluorescence intensity to that without chemical substance): 2.1
The level of expressed mRNA in the presence of chemical substance/ (ratio to absence of chemical substance) (yeast gene YBR044C): 0.9
The level of expressed mRNA in the presence of chemical substance/ (yeast gene YBR047W): 1.3
The level of expressed mRNA in the presence of chemical substance/ (ratio to absence) (yeast gene YBR052C): 1.8
The level of expressed mRNA in the presence of chemical substance/in the absence of chemical substance (yeast gene YBR056W): 2.4
The level of expressed mRNA in the presence of chemical substance/ (ratio to absence) (yeast gene YBR068C): 1.1
The level of expressed mRNA in the presence of chemical substance/ (yeast gene YBR101C): 0.9
